Data as given in PubChem BioAssay (NCI).
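Interpolation was linear, between the two tested concentrations surrounding the appropriate level; five concentrations were tested over 48 hours in 96-well plates. TGI is the concentration that stops growth completely.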

Columns and labels:
Experiment in all cases: NCI tumour cell line growth inhibition, 48 h
[1] = test system: 786-0 renal
[2] = test system: A498 renal
[3] = test system: A549 NSCLC
[4] = test system: ACHN renal
[5] = test system: BT-549 breast
[6] = test system: CAKI-1 renal
[7] = test system: CCRF-CEM leukemia
[8] = test system: COLO 205 colon
[9] = test system: DU-145 prostate
[10] = test system: EKVX NSCLC
[11] = test system: HCC-2998 colon
[12] = test system: HCT-116 colon
[13] = test system: HCT-15 colon
[14] = test system: HOP-62 NSCLC
[15] = test system: HOP-92 NSCLC
[16] = test system: IGROV1 ovarian
[17] = test system: K-562 leukemia
[18] = test system: KM12 colon
[19] = test system: LOX IMVI melanoma
[20] = test system: M14 melanoma
[21] = test system: MALME-3M melanoma
[22] = test system: MCF7 breast
[23] = test system: MDA-MB-231 breast
[24] = test system: MDA-MB-435
[25] = test system: MDA-N
[26] = test system: MOLT-4 leukemia
[27] = test system: NCI-H226 lung
[28] = test system: NCI-H23 lung
[29] = test system: NCI-H522 lung
[30] = test system: NCI/ADR-RES ovarian
[31] = test system: OVCAR-3 ovarian
[32] = test system: OVCAR-4 ovarian
[33] = test system: OVCAR-5 ovarian
[34] = test system: OVCAR-8 ovarian
[35] = test system: PC-3 prostate
[36] = test system: RPMI-8226 leukemia
[37] = test system: RXF 393 renal
[38] = test system: SF-295 CNS
[39] = test system: SF-539 CNS
[40] = test system: SK-MEL-2 melanoma
[41] = test system: SK-MEL-28 melanoma
[42] = test system: SK-MEL-5 melanoma
[43] = test system: SK-OV-3 ovarian
[44] = test system: SN12C renal
[45] = test system: SNB-19 CNS
[46] = test system: SR leukemia
[47] = test system: SW-620 colon
[48] = test system: T-47D breast
[49] = test system: TK-10 renal
[50] = test system: U251 CNS
[51] = test system: UACC-257 melanoma
[52] = test system: UACC-62 melanoma
[53] = test system: UO-31 renal
[54] = test system: HL-60(TB) leukemia
[55] = test system: HT29 colon
[56] = test system: NCI-H460 lung
[57] = test system: SF-268 CNS
[58] = test system: SNB-75 CNS
[59] = test system: HS 578T breast

Measured: TGI

O=C(NCC(O)COc1ccccc1)c1ccccc1O (stereo unspecified)
47.2 µM: [26]
not listed: [54] | [55] | [56] | [57] | [58] | [59]
> 100 µM: all other assays above

COc1ccc(/C=C(\C#N)c2ccccn2)cc1OC
65.7 µM: [35]
84.9 µM: [58]
55.7 µM: [30]
56.9 µM: [10]
85.3 µM: [38]
82.2 µM: [53]
42 µM: [50]
48.7 µM: [15]
72.6 µM: [22]
45.4 µM: [5]
95.8 µM: [27]
not listed: [2] | [19] | [23] | [24] | [48] | [59]
> 100 µM: all other assays above

O=C(C=P(c1ccccc1)(c1ccccc1)c1ccccc1)c1ccccc1-c1ccccc1C(=O)C=P(c1ccccc1)(c1ccccc1)c1ccccc1
0.0716 µM: [19]
1.58 µM: [45]
2.03 µM: [41]
1.61 µM: [57]
0.0905 µM: [17]
0.0395 µM: [22]
0.02 µM: [18]
1.25 µM: [1]
0.0496 µM: [38]
1.42 µM: [20]
0.317 µM: [59]
1.36 µM: [16]
< 0.0195 µM: [54]
< 0.012 µM: [31]
0.0222 µM: [8]
1.33 µM: [52]
0.843 µM: [7]
0.0263 µM: [42]
0.182 µM: [49]
0.158 µM: [23]
1.63 µM: [32]
0.585 µM: [33]
< 0.0208 µM: [21]
0.259 µM: [12]
1.28 µM: [9]
0.115 µM: [58]
0.91 µM: [10]
1.11 µM: [24]
0.507 µM: [14]
0.366 µM: [43]
1.78 µM: [29]
1.12 µM: [4]
0.0544 µM: [15]
0.0667 µM: [46]
1.1 µM: [6] | [25]
2.08 µM: [48]
1.23 µM: [35]
0.384 µM: [39]
0.0899 µM: [28]

O=C(OC[C@H]1C[C@H]2C(=O)OCCC[C@H]2O1)c1ccccc1
not listed: [5] | [11] | [19] | [21] | [37] | [39]
> 100 µM: all other assays above

CN1N=C(c2ccncc2)OC1c1ccc(C(F)(F)F)cc1 (stereo unspecified)
87.8 µM: [58]
not listed: [5] | [6] | [15] | [21] | [46]
> 100 µM: all other assays above

Cc1ccc([N+](=O)[O-])cc1S(=O)(=O)Nc1ccc(C2=NN(S(=O)(=O)c3cc([N+](=O)[O-])ccc3C)C(c3ccccc3O)C2)cc1 (stereo unspecified)
83.9 µM: [2]
not listed: [39] | [59]
> 100 µM: all other assays above

CC(=O)CC(O)(C(F)(F)Cl)C(F)(Cl)Cl (stereo unspecified)
not listed: [5] | [26] | [33] | [36] | [46]
> 10 µM: all other assays above

O=[N+]([O-])C(/C=C(\Cl)[N+](=O)[O-])=C(N1CCOCC1)N1CCOCC1
35.3 µM: [22]
51.5 µM: [2]
30.7 µM: [1]
54 µM: [53]
57.2 µM: [33]
52.7 µM: [48]
39.9 µM: [39]
34.4 µM: [31]
83.1 µM: [55]
54.6 µM: [36]
53.9 µM: [32]
61 µM: [6]
46.7 µM: [50]
43.7 µM: [23]
37.6 µM: [17]
70.3 µM: [21]
62 µM: [12]
76.4 µM: [15]
43 µM: [11]
37.7 µM: [14]
36.8 µM: [54]
33.9 µM: [8]
39.3 µM: [3]
not listed: [5] | [47]
> 100 µM: all other assays above
